Series [1] relates to NCI-N87. Put plainly: Incucyte proliferation, single agents and combinations, NCI-N87. Format: cell-based. The conditions noted are these: Homo sapiens, NCI-N87, 96 h; read-out: Reduction/inhibition of cell proliferation. The protocol: (A–C) Proliferation curves of HER2‐positive (SKBR3, A; BT474, B; NCI‐N87, C) cancer cell lines treated or not with ebselen oxide (10 μM), lapatinib (10–1000 nM), or combination of these agents, as indicated. Proliferation was assessed overtime by Incucyte during 4 days. Data are mean ± SD (n = 8–12) of a representative experiment out of 4 (A), 3 (B), or 2 (C) independent experiments. […] Proliferation was assessed by Incucyte during 4 days. […] Scale bars are […].

For series [2], the system named is BT474. Put plainly: MTT proliferation assay, BT474. The series is classed as cell-based, human. Particulars: 10 μM. The protocol:
Fig. 2 Ebselen oxide inhibits HER2 activation, cell proliferation, and anchorage‐independent growth of HER2^+ breast cancer cells. […] Blot and quantification of a representative experiment are shown out of 4 (A), 5 (B), or 2 (C) independent experiments. (D–F) Proliferation curves of HER2‐positive (SKBR3, D or BT474, E) or HER2‐negative (MDA‐MB‐231, F) breast cancer cell lines treated with vehicle or 10 μM ebselen oxide assessed by MTT assay. […] (G–I) Anchorage‐independent growth of SKBR3 (G), BT474 (H), or MDA‐MB‐231 (I) cells treated with vehicle or 10 μM ebselen oxide. […] Scale bars are […].
Background: Tetrazolium assays rely on reduction of a dye to a coloured formazan, in cell work by metabolically active cells.

Series [3] concerns HBMECs overexpressing p95 HER2. Briefly: Proliferation of HBMECs overexpressing p95 HER2 (Incucyte). Particulars: 5 μM, Incucyte 5 days.
Description: 25.10^3 cells/96‐well transfected HBMECs or 9.10^3 cancer cells were seeded and monitored with an Incucyte S3 imaging system (Sartorius, Goettingen, Germany) using 10× objective every 2 h during 5 days. Confluency analyses were performed using the dedicated Incucyte analysis system.
(D–F) Proliferation was assessed by Incucyte during 5 days. Data are mean ± SEM of a representative experiment out of two independent experiments. Two‐way ANOVA followed by Bonferroni's multiple comparison test, ***P < 0.001, ****P < 0.0001.
(A-B) HBMECs transfected with empty vector (pRK5) or vectors encoding gD-HER2 WT, the truncated gD-
Proliferation was assessed by Incucyte during 5 days. Representative micrographs are shown (A).
Representative quantification of the proliferation (B) is shown where data are mean ± sem (n=8-12). Two-way
ANOVA followed byBonferroni’s multiple comparison test, *** P<0.001, **** P<0.0001. Scale bars are 100 µM.
vehicle, 5-10 µM Ebselen oxide or 5 µM AG1478. Proliferation was assessed by MTT assay during 3 days.
Data are mean ± sem (n=3). Two-way ANOVA followed by Bonferroni’s multiple comparison test, * P<0.05 **
Series [4] has as its system BT474 cells implanted in the mammary fat pad. Put plainly: Tumor growth in orthotopic BT474 xenograft in immunodeficient mice. The conditions noted are these: for Tumor size increase between day 19 and day 40: 5 days a week, vehicle 172%. The series is classed as in vivo. The text has this:
Experiments were done as already described on the TrGET platform of centre de Recherche de Cancérologie de Marseille (Institut Paoli Calmettes, Marseille, France) in accordance with the guidelines of the Institut National de la Santé et de la Recherche Médicale. The study was approved by the Animal Experimentation Ethics Committee of Marseille (APAFIS#2079‐2015092811101360 v3). Briefly, 7‐to‐8‐week‐old female NOD.Cg‐Prkdc scid/J (NSG) mice were purchased from Charles River France or bred in‐house and maintained on a 12‐h light and 12‐h dark cycle, under specific pathogen‐free conditions with sterilized food and water provided ad libitum. The initial body weight of the animals at the time of arrival was between 19 and 24 g. Mice were allowed to acclimatize to local conditions for 1 week before being injected with tumor cells. 5 × 10^6 BT474 cells resuspended in 100 μL (50% matrigel and 50% PBS) were implanted orthotopically in the mammary fat pad of NSG mice anesthetized with ketamine and xylazine and administered with the nonsteroidal anti‐inflammatory drug metacam (SC, 1 mg·kg^−1). Estradiol pellets were implanted subcutaneously. Metacam was administered 24 and 48 h postimplantation. Nineteen days after implantation, mice were randomized into […] to be administered intraperitoneally during 3 weeks with vehicle (10% DMSO in PBS, twice a day, 5 days a week, n = 8), 3 mg·kg^−1 ebselen oxide (twice a day, 5 days a week, n = 8), or […] ebselen oxide (twice a day, 5 days a week, n = 8). Mice weight and tumor volume were assessed 2–3 times a week using a caliper. At the end of the experiment, the collected tumors were photographed, weighed, and cut into halves to be embedded in OCT for immunohistofluorescence analysis or frozen in liquid nitrogen for western blot analysis.
The collected tumors embedded in OCT were cut into 5 μm thick sections and immobilized on superfrost™ plus microscope slides. Sections were fixed in 4% paraformaldehyde for 10 min at room temperature, washed three times in PBS, permeabilized for 10 min in PBS containing 0.1% Triton X100, washed with PBS, blocked for 30 min in PBS containing 3% BSA and incubated 1 h at room temperature with primary antibodies [Monoclonal anti‐HER2 (clone Cle2‐4001 and 3B5, IF‐1 : 100) or polyclonal anti‐KI67 (ref PA5‐16785, IF‐1 : 200)]. Sections were again washed three times in PBS and incubated 1 h at room temperature with fluorescence‐conjugated secondary antibodies from Jackson Immunoresearch Laboratories. After mounting, samples were scanned using a Lamina multilabel slide scanner (PerkinElmer). The proliferative index (mean percentage of Ki67‐positive nuclei) was quantified on 10 regions (area 0.2 mm^2) per slide (vehicle, n = 7; ebselen oxide n = 5) using IMAGEJ software.
We then explored the potential of ebselen oxide to reduce the growth of HER2‐overexpressing tumors in vivo. Nineteen days after orthotopic implantation of BT474 cells in the mammary fat pad of immunodeficient […] mice, mice received 3 or 5 mg·kg^−1 ebselen oxide, intraperitoneally (once or twice a day, as indicated, 5 days a week) or vehicle as a control. […] Conversely, in animals treated with 5 mg·kg^−1 ebselen oxide, it increased only by 44% in mice treated with 5 mg·kg^−1 ebselen oxide, corresponding to a significant growth inhibition index of 75% at day 40 (Fig. 5C–E). […] Of note, there was an excellent correlation between tumor volume and tumor weight (R ^2 = 0.9611, Fig. 5H). […] We next analyzed biochemically the intratumoral level of activated HER2 and downstream signaling in vehicle‐ and 5 mg·kg^−1 ebselen oxide‐treated mice.

The values that follow come from publication PMC10552892, “Ebselen oxide and derivatives are new allosteric HER2 inhibitors for HER2‐positive cancers” (Molecular Oncology, 2023).

Take `O=C1c2ccccc2[Se](=O)N1c1ccccc1` (stereo not drawn) [Ebselen oxide, ebselen oxide]: in series [1], the inhibition at 10 µM stood at 45%. In addition, the “Reduction of proliferation rate” value in series [2] is 55%. The “Inhibition of cell proliferation induced by overexpression of p95 HER2” value in series [3] is listed as “almost totally inhibited”. Further, the “Tumor size increase between day 19 and day 40” value in series [4] (3 mg·kg−1 i.p.) was 112%. Also, in series [4] (3 mg·kg−1 i.p., day 40), the “Reduction in tumor size and weight compared to vehicle” value is on record as “only a little reduction”. Besides, the “Drop of tumor proliferation index (Ki67) vs vehicle” value in series [4] (5 mg·kg−1, immunofluorescence on tumor sections) was determined as 32%. For the same compound, in series [4] (5 mg·kg−1, western blot), the “Decrease of HER2 activation in tumor lysates vs vehicle” value worked out at 30%, the “Inhibition of Akt activation in tumor lysates” value turned out to be 50% and the “Inhibition of ERK activation in tumor lysates” value is recorded as 45%. For the same compound, in series [4] (5 mg·kg−1 i.p.), the “Tumor size increase between day 19 and day 40” value was 44%. The Growth inhibition index in series [4] (5 mg·kg−1 i.p., day 40) came to 75%. For the same compound, in series [4] (5 mg·kg−1 i.p., tumors collected at day 40), the “Drop in tumor weight compared to vehicle-treated group” value worked out at 40%. Besides, the “Mice body weight after day 30” value in series [4] (3 and 5 mg·kg−1, recovered after reduction from two to one injection per day) is “decrease of mice body weight”. In addition, in series [4] (3 and 5 mg·kg−1 i.p. twice a day), the “Tolerability (mice body weight)” value is given as “well‐tolerated until day 30”. The “Decrease in the mammary tumor volume (discussion)” value in series [4] (mouse model, ebselen oxide administration) is recorded as 40%.
